Experimental data taken from patent US7371207B2 (Wyeth, priority 2002, dated 2008).
Entries after “also recorded” stand apart in the source; their conditions may differ.

Legend:
[1] = tested on: gene expression in the pituitary; assay: GeneChip microarray survey of E2 regulated gene expression, pituitary; format: in vivo, mouse
Source text: (§1) One week later, the animals were ovariectomized.

[2] = tested on: gene expression in the kidney; assay: Real-time PCR of kidney gene expression in ovariectomized WT mice
Source text: FIGS. 5A-5B show a series of graphs showing expression levels for various genes. […] (B) Uterine wet weights (mg) and gene expression values (mean±SEM).
FIGS. 6A-6D show a series of bar graphs depicting relative expression levels for various genes.
as §1

[3] = tested on: gene expression in the uterus; assay: GeneChip microarray survey of E2 regulated gene expression, uterus; conditions: 20 μg/kg/day E2 s.c. six weeks; WT and ERβKO ovariectomized mice; number of genes
Experimental: FIG. 1 depicts a pattern analysis generated by a GeneChip microarray analysis. […] Two hours following the final dose, the mice were euthanized and 13 tissues removed for RNA preparation. Two independent studies were performed, with total RNA pooled from two groups of three animals for each condition. Gene expression was quantified by GeneChip microarrays using murine U74 sub A arrays. Data were analyzed for patterns indicating either ERα or ERβ dependent regulation as shown. […] The number of genes in each tissue that matched the theoretical induction (↑) or repression (↓) patterns for ERα or ERβ are indicated.
as §1
GeneChip—Total RNA was prepared separately from each individual organ by using Trizol (Invitrogen) followed by subsequent repurification on Rneasy columns (Qiagen). In general, two pools of RNA were created using equal amounts of RNA from three mice. For small organs such as pituitary, an equal amount of RNA from six animals was combined.
Target Preparation and Array Hybridization—Total RNA was used to generate biotin labeled cRNA target as described (8) which was hybridized to the murine MG_U74Av2 probe arrays (Affymetrix, Santa Clara, Calif.) for 16 h at 45° C. Eleven biotin-labeled cRNAs at defined concentration were spiked into each hybridization and used to convert average difference values to frequencies expressed as parts per million.
The resulting data set was queried for genes whose regulation was dependent on ERα or ERβ.

[4] = tested on: gene expression in the kidney of mice expressing ΔAF1-ERα; assay: Real-time PCR of kidney gene expression in ERαERβKO or ERαKO mice expressing ΔAF1-ERα
Experimental: Kidney gene expression values were determined by real-time PCR for each individual animal and normalized for GAPDH expression. The mean expression level in vehicle-treated WT mice was defined as 1 for each gene. *p<0.01 for comparison to vehicle treated animals.
One week later, the animals were ovariectomized. Commencing the day after ovariectomy, each animal received a daily subcutaneous treatment with vehicle (50% DMSO, 50% phosphate buffered saline) or vehicle containing treatments for six weeks. Each group consisted of six or seven animals. Approximately 2 hours following the final treatment, the animals were euthanized with selected tissues frozen in liquid nitrogen for RNA analysis or on dry ice for histology.

[5] = 20 μg/kg/day E2 s.c. six weeks, WT and ERβKO ovariectomized mice, number of genes
[6] = 10 μg/kg/day E2 or 5 mg/kg/day tamoxifen, 6 weeks, FIG. 8

## C[C@]12CC[C@@H]3c4ccc(O)cc4CC[C@H]3[C@@H]1CC[C@@H]2O [E2, 17β-estradiol]
[1]; [5]
  ERα pattern regulations in pituitary, number of inductions: 56
  ERα pattern regulations in pituitary, number of repressions: 30
[1]; mouse, in vivo
  Kallikrein-9 expression in pituitary: Induced
[2]; [6]
  BCAT1 expression in kidney, WT mice: induced
  CYP7B1 expression in kidney, WT mice: induced
  TF expression in kidney, WT mice: induced
[2]; ovariectomized WT mice, various doses s.c. six weeks, FIG. 5
  ED50 for stimulation of CYP7B1, TF, STAT5A, and BCAT1 in the kidney: about 3 μg/kg/day
[3]
  ERα pattern regulations in uterus, number of inductions: 514
  ERα pattern regulations in uterus, number of repressions: 19
[4]; 10 μg/kg/day E2, 6 weeks, FIG. 8
  CYP7B1 expression in kidney, mice expressing ΔAF1-ERα (ERαERβKO or ERαKO): increased CYP7B1 expression
[4]; [6]
  BCAT1 expression in kidney, ERαERβKO mice: stimulated BCAT1 expression
  TF expression in kidney, ERαERβKO mice (express only ΔAF1-ERα): Neither compound could induce TF expression
[4]; WT versus ΔAF1-ERα mice, E2 versus tamoxifen
  mechanism of induction of BCAT1 in kidney (ERα AF1 or AF2): either AF1 or AF2 mechanisms; also recorded: both AF1 and AF2 mechanisms
